According to publication PMC7271629 (ACS chemical biology, 2020):

Columns and labels:
[1] = tested on: c-Myc expression in K562 chronic myelogenous leukemia cells; experiment: c-Myc expression in K562 cells; assay type: cell-based, human
[2] = tested on: BD1 and BD2 within a BET protein; conditions: cited from earlier work

Row | SMILES | effect on c-Myc expression [1] | affinity of bivalent engagement of BD1 and BD2 [2]
1 | Cc1sc2c(c1C)C(c1ccc(Cl)cc1)=N[C@@H](CC(=O)OC(C)(C)C)c1nnc(C)n1-2 [JQ1] | attenuated c-Myc expression | –
2 | Cc1sc2c(c1C)C(c1ccc(Cl)cc1)=N[C@@H](CC(=O)NCCOCCOCCOCCOCCOCCOCCOCCNC(=O)C[C@@H]1N=C(c3ccc(Cl)cc3)c3c(sc(C)c3C)-n3c(C)nnc31)c1nnc(C)n1-2 [MT1] | – | subnanomolar
